Source: patent US9340590B2 (priority 2011, dated 2016)
pIC50: −log10 of the molar value. Like-named read-outs stand apart in the source and are kept apart here. Positions of bridges follow the written chain, without caps; N, C: chain ends. Non-standard residues stand in square brackets, D forms with d. Residues, ends and D or L forms follow the SMILES beside them. Lys(Me2) = CN(C)CCCC[C@H](N)C(=O)O

Key:
Assay in all cases: cell-based
hNav1.5 = hNav1.5 (Homo sapiens, UniProt Q14524)
hNav1.7 = hNav1.7 (Homo sapiens, UniProt Q15858); type: cell-based; conditions: IonWorks Quattro; clamped to −110 mV, depolarized to −10 mV, 5 min after compound; n=2; read-out: IWQ Use Nav1.7
hNav1.3 = hNav1.3 (Homo sapiens, UniProt Q9NY46); conditions: IonWorks Quattro, read-out: IWQ Use Nav1.3
Chain of hNav1.3 (Q9NY46 whole entry, looked up): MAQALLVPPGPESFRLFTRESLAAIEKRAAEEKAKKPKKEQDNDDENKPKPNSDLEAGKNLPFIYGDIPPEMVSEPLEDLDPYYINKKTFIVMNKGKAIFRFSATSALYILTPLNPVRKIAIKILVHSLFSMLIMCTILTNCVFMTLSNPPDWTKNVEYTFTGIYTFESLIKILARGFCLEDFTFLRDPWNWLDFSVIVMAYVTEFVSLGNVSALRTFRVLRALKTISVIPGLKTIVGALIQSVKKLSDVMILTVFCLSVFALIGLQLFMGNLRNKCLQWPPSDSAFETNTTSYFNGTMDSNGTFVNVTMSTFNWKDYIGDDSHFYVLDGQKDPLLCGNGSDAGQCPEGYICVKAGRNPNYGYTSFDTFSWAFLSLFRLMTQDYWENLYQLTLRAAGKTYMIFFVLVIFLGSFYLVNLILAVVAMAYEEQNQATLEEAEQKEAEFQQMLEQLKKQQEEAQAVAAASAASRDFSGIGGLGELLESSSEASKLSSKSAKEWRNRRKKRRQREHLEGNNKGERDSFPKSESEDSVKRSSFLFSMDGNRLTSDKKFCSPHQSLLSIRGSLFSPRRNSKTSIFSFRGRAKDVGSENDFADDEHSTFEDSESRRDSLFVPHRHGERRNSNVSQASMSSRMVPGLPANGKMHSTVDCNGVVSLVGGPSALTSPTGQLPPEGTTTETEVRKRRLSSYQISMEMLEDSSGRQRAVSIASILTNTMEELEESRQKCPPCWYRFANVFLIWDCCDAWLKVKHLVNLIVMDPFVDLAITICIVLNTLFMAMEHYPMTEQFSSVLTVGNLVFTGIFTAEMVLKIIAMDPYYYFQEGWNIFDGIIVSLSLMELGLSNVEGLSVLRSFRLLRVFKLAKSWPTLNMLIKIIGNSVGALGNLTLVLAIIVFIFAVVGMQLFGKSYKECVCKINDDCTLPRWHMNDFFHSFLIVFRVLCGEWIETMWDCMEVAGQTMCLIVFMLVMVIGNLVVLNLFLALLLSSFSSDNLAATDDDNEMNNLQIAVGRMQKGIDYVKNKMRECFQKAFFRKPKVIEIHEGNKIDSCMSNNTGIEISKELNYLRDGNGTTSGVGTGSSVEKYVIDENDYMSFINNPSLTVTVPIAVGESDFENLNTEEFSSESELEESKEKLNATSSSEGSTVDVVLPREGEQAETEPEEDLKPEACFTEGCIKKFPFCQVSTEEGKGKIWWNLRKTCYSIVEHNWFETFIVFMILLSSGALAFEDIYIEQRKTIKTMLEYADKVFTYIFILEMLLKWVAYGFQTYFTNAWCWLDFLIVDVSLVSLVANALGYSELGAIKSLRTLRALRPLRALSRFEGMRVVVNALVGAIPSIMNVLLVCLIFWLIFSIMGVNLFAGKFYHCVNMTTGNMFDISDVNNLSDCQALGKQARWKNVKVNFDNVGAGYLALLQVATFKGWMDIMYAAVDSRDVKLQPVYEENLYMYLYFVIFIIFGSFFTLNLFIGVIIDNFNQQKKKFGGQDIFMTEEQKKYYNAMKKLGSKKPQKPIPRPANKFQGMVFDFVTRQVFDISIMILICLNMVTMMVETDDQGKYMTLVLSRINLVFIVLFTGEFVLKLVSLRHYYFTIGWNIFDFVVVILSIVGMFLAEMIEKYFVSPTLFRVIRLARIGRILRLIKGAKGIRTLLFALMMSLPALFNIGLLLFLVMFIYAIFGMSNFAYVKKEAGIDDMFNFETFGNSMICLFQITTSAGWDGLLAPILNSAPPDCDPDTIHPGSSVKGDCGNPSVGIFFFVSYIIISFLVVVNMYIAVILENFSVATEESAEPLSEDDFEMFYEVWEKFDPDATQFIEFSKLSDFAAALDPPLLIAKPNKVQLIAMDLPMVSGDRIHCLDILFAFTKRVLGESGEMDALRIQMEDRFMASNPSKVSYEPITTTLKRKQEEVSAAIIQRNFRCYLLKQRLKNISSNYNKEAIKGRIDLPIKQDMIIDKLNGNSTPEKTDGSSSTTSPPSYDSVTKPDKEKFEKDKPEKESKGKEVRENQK

[1] = IonWorks Quattro, use-dependent, […], read-out: IWQ Use Nav1.5

Chain of hNav1.5 (Q14524 whole entry, looked up): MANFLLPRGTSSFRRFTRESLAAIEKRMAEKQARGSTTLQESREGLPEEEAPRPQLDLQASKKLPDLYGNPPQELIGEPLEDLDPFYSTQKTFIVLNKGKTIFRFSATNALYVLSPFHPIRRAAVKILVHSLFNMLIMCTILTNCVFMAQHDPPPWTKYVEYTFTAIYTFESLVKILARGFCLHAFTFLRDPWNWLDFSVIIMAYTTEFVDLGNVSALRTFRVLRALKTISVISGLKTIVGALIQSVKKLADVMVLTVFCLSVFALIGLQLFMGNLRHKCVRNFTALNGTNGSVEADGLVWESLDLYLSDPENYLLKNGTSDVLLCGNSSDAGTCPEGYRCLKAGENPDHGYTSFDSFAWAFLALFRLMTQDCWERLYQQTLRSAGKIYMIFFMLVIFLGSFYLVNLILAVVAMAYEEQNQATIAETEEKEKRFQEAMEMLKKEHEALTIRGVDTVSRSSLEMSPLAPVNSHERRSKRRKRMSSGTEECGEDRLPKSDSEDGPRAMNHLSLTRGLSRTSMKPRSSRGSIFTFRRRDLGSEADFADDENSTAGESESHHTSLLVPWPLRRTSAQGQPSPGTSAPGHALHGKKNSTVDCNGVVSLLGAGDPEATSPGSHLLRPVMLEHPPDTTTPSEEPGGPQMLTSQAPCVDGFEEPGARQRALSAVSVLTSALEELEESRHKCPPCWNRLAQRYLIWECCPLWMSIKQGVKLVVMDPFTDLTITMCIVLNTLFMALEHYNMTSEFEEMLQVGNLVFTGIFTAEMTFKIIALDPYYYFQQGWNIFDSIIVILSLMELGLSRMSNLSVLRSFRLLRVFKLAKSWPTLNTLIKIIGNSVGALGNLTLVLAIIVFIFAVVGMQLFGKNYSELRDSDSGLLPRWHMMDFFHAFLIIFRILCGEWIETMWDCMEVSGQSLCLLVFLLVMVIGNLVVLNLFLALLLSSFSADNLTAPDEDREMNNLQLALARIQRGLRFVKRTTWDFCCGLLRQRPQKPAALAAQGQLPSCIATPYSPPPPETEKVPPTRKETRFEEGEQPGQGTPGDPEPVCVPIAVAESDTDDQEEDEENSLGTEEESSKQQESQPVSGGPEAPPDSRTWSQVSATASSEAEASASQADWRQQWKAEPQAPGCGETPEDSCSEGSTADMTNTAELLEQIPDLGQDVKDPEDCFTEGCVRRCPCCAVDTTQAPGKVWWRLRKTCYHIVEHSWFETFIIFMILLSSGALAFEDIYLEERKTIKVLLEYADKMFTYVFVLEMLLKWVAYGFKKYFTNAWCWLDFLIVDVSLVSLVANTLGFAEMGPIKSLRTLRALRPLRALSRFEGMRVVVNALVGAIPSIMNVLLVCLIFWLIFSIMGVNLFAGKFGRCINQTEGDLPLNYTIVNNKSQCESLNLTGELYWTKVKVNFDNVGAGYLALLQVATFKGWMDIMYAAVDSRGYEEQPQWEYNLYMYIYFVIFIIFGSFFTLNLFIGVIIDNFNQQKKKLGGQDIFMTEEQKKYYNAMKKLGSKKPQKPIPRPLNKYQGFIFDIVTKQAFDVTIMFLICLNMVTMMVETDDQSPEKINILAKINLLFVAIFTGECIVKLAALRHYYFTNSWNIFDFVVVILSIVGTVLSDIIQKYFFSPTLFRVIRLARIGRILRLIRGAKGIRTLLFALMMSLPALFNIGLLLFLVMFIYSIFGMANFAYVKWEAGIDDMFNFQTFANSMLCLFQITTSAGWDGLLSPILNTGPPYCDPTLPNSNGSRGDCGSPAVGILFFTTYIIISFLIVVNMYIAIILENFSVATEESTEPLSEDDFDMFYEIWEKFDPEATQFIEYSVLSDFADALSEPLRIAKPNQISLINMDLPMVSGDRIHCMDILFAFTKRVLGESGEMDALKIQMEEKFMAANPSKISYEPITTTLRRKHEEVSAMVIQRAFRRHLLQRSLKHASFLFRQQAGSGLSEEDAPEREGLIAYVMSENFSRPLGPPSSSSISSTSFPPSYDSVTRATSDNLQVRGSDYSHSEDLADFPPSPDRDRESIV

Row | Structure (SMILES) | pIC50 (hNav1.7) | pIC50 (hNav1.3; use-dependent, […]) | pIC50 (hNav1.5; [1]) | also measured
1 | CC[C@H](C)[C@@H]1NC(=O)[C@@H]2CSSC[C@@H]3NC(=O)[C@H](C(C)C)NC(=O)[C@H](CC(C)C)NC(=O)[C@H](CC(N)=O)NC(=O)[C@@H]4CCCN4C(=O)[C@H](CCCNC(=N)N)NC(=O)[C@H](CSSC[C@H](NC(=O)[C@@H](N)CC(=O)O)C(=O)N[C@@H](CC(C)C)C(=O)NCC(=O)N[C@@H](CCC(=O)O)C(=O)N[C@@H](CCSC)C(=O)N[C@@H](CCCNC(=N)N)C(=O)N[C@@H](CCCCN)C(=O)N2)NC(=O)[C@H](CSSC[C@@H](C(=O)N[C@@H](CCCCN)C(=O)N[C@@H](Cc2ccc(O)cc2)C(=O)N[C@H](C(=O)N[C@@H](Cc2ccccc2)C(N)=O)C(C)C)NC(=O)[C@H](Cc2c[nH]c4ccccc24)NC(=O)[C@H](CCCCN)NC(=O)[C@H](Cc2cnc[nH]2)NC(=O)[C@H]([C@@H](C)O)NC(=O)[C@H](CCCNC(=N)N)NC(=O)[C@H](CO)NC3=O)NC(=O)[C@H](CCCCN)NC(=O)[C@H](CC(=O)O)NC(=O)[C@H](CC(N)=O)NC(=O)[C@H](CC(=O)O)NC(=O)[C@@H]2CCCN2C1=O [SEQ ID NO: 143] (H-DCLGEMRKCIPDNDKCCRPNLVCSRTHKWCKYVF-NH2; disulfide 2-17, 9-23, 16-30) | 4.75 |  |  | pIC50 (hNav1.5; IWQ Use Nav1.5): 5.00
2 | CC[C@H](C)[C@@H]1NC(=O)[C@@H]2CSSC[C@@H]3NC(=O)[C@H](C(C)C)NC(=O)[C@H](CC(C)C)NC(=O)[C@H](CC(N)=O)NC(=O)[C@@H]4CCCN4C(=O)[C@H](CCCNC(=N)N)NC(=O)[C@H](CSSC[C@H](NC(=O)[C@@H](N)CC(=O)O)C(=O)N[C@@H](CC(C)C)C(=O)NCC(=O)N[C@@H](Cc4ccccc4)C(=O)N[C@@H](Cc4ccc(I)cc4)C(=O)N[C@@H](CCCNC(=N)N)C(=O)N[C@@H](CCCCN)C(=O)N2)NC(=O)[C@H](CSSC[C@@H](C(=O)N[C@@H](CCCCN)C(=O)N[C@@H](Cc2ccc(O)cc2)C(=O)N[C@H](C(=O)N[C@@H](Cc2ccccc2)C(N)=O)C(C)C)NC(=O)[C@H](Cc2c[nH]c4ccccc24)NC(=O)[C@H](CCCCN)NC(=O)[C@H](Cc2c[nH]cn2)NC(=O)[C@H]([C@@H](C)O)NC(=O)[C@H](CCCNC(=N)N)NC(=O)[C@H](CO)NC3=O)NC(=O)[C@H](CCCCN)NC(=O)[C@H](CC(=O)O)NC(=O)[C@H](CC(N)=O)NC(=O)[C@H](CC(=O)O)NC(=O)[C@@H]2CCCN2C1=O [SEQ ID NO: 291] | 7.70 |  |  | pIC50 (hNav1.5; IonWorks Quattro, clamped to −110 mV, depolarized to −10 mV, 5 min after compound, n=2, read-out: IWQ Use Nav1.5): 6.02
3 | CC[C@H](C)[C@@H]1NC(=O)[C@@H]2CSSC[C@@H]3NC(=O)[C@H](C(C)C)NC(=O)[C@H](CC(C)C)NC(=O)[C@H](CC(N)=O)NC(=O)[C@@H]4CCCN4C(=O)[C@H](CCCCN(C)C)NC(=O)[C@H](CSSC[C@H](NC(=O)[C@@H](N)CC(=O)O)C(=O)N[C@@H](CC(C)C)C(=O)NCC(=O)N[C@@H](Cc4ccccc4)C(=O)N[C@@H](CCSC)C(=O)N[C@@H](CCCNC(=N)N)C(=O)N[C@@H](CCCCN)C(=O)N2)NC(=O)[C@H](CSSC[C@@H](C(=O)N[C@@H](CCCCN)C(=O)N[C@@H](Cc2ccc(O)cc2)C(=O)N[C@H](C(=O)N[C@@H](Cc2ccccc2)C(N)=O)C(C)C)NC(=O)[C@H](Cc2c[nH]c4ccccc24)NC(=O)[C@H](CCCCN)NC(=O)[C@H](Cc2cnc[nH]2)NC(=O)[C@H]([C@@H](C)O)NC(=O)[C@H](CCCNC(=N)N)NC(=O)[C@H](CO)NC3=O)NC(=O)[C@H](CCCCN)NC(=O)[C@H](CC(=O)O)NC(=O)[C@H](CC(N)=O)NC(=O)[C@H](CC(=O)O)NC(=O)[C@@H]2CCCN2C1=O [compound 314] (H-DCLGFMRKCIPDNDKCC[Lys(Me2)]PNLVCSRTHKWCKYVF-NH2; disulfide 2-17, 9-23, 16-30) |  |  |  | pIC50 (hNav1.3; Use): 7.10; pIC50 (hNav1.5; IonWorks Quattro, Use, read-out: IWQ Use Nav1.5): 5.18
4 | CC[C@H](C)[C@@H]1NC(=O)[C@@H]2CSSC[C@@H]3NC(=O)[C@H](C(C)C)NC(=O)[C@H](CC(C)C)NC(=O)[C@H](CC(N)=O)NC(=O)[C@@H]4CCCN4C(=O)[C@H](CCCNC(=N)N)NC(=O)[C@H](CSSC[C@H](NC(=O)[C@@H](N)CC(=O)O)C(=O)N[C@@H](CC(C)C)C(=O)NCC(=O)N[C@@H](Cc4ccccc4)C(=O)N[C@@H](CCSC)C(=O)N[C@@H](CCCNC(=N)N)C(=O)N[C@@H](CCCCN)C(=O)N2)NC(=O)[C@H](CSSC[C@@H](C(=O)N[C@@H](CCCCN)C(=O)N[C@@H](Cc2ccc(O)cc2)C(=O)N[C@H](C(=O)N[C@@H](Cc2ccccc2)C(N)=O)C(C)C)NC(=O)[C@H](Cc2c[nH]c4ccccc24)N(C)C(=O)[C@H](CCCCN)NC(=O)[C@H](Cc2c[nH]cn2)NC(=O)[C@H]([C@@H](C)O)NC(=O)[C@H](CCCNC(=N)N)NC(=O)[C@H](CO)NC3=O)NC(=O)[C@H](CCCCN)NC(=O)[C@H](CC(=O)O)NC(=O)[C@H](CC(N)=O)NC(=O)[C@H](CC(=O)O)NC(=O)[C@@H]2CCCN2C1=O [compound 357] |  |  |  | pIC50 (hNav1.3; Table 24, use, […]): < 5.30; IC50 (hNav1.5; IWQ Use Nav1.5 (μM)): > 5 µM
5 | CC[C@H](C)[C@@H]1NC(=O)[C@@H]2CSSC[C@@H]3NC(=O)[C@H](C(C)C)NC(=O)[C@H](CC(C)C)NC(=O)[C@H](CC(N)=O)NC(=O)[C@@H]4CCCN4C(=O)[C@H](CCCNC(=N)N)NC(=O)[C@H](CSSC[C@H](NC(=O)[C@@H](N)CC(=O)O)C(=O)N[C@@H](CC(C)C)C(=O)NCC(=O)N[C@@H](Cc4ccccc4)C(=O)N[C@@H](CCSC)C(=O)N[C@@H](CCCNC(=N)N)C(=O)N[C@@H](CCCCN)C(=O)N2)NC(=O)[C@H](CSSC[C@@H](C(=O)N[C@@H](CCCCN)C(=O)N[C@@H](Cc2ccc(O)cc2)C(=O)N[C@H](C(N)=O)C(C)C)NC(=O)[C@H](Cc2c[nH]c4ccccc24)NC(=O)[C@H](CCCCN)NC(=O)[C@H](Cc2cnc[nH]2)NC(=O)[C@H]([C@@H](C)O)NC(=O)[C@H](CCCNC(=N)N)NC(=O)[C@H](CO)NC3=O)NC(=O)[C@H](CCCCN)NC(=O)[C@H](CC(=O)O)NC(=O)[C@H](CC(N)=O)NC(=O)[C@H](CC(=O)O)NC(=O)[C@@H]2CCCN2C1=O [compound 415] (H-DCLGFMRKCIPDNDKCCRPNLVCSRTHKWCKYV-NH2; disulfide 2-17, 9-23, 16-30) |  | 5.89 | 4.96 | 
6 | CC[C@H](C)[C@@H]1NC(=O)[C@@H]2CSSC[C@@H]3NC(=O)[C@H](C(C)C)NC(=O)[C@H](CC(C)C)NC(=O)[C@H](CC(N)=O)NC(=O)[C@@H]4CCCN4C(=O)[C@H](CCCNC(=N)N)NC(=O)[C@H](CSSC[C@H](NC(=O)[C@@H](N)CC(=O)O)C(=O)N[C@@H](CC(C)C)C(=O)NCC(=O)N[C@@H](Cc4ccccc4)C(=O)N[C@@H](CCSC)C(=O)N[C@@H](CCCNC(=N)N)C(=O)N[C@@H](CCCCN)C(=O)N2)NC(=O)[C@H](CSSC[C@@H](C(=O)N[C@@H](CCCCN)C(=O)N[C@@H](Cc2ccc(O)cc2)C(N)=O)NC(=O)[C@H](Cc2c[nH]c4ccccc24)NC(=O)[C@H](CCCCN)NC(=O)[C@H](Cc2cnc[nH]2)NC(=O)[C@H]([C@@H](C)O)NC(=O)[C@H](CCCNC(=N)N)NC(=O)[C@H](CO)NC3=O)NC(=O)[C@H](CCCCN)NC(=O)[C@H](CC(=O)O)NC(=O)[C@H](CC(N)=O)NC(=O)[C@H](CC(=O)O)NC(=O)[C@@H]2CCCN2C1=O [compound 416] (H-DCLGFMRKCIPDNDKCCRPNLVCSRTHKWCKY-NH2; disulfide 2-17, 9-23, 16-30) |  | 6.06 | 5.06 | 
